According to ChEMBL document CHEMBL1156829 (Proc Natl Acad Sci U S A, 2008):

What was measured:
[1] = NOVARTIS: Cytotoxicity against human hepatocellular carcinoma cell line (Huh7); format: toxicity, cell-based, Huh-7; conditions: Huh7 cells (hepatocellular carcinoma cell line)
[2] = test system: Plasmodium falciparum; test: NOVARTIS: Inhibition of Plasmodium falciparum 3D7 (drug-susceptible) proliferation in erythrocyte-based infection assay; format: functional, organism-based; conditions: Plasmodium falciparum, 3D7
[3] = test system: Plasmodium falciparum; test: NOVARTIS: Inhibition of Plasmodium falciparum W2 (drug-resistant) proliferation in erythrocyte-based infection assay; format: functional, organism-based; conditions: Plasmodium falciparum, W2; read-out: EC50

## O=C(NCCN1CCOCC1)c1ccc(Cl)cc1 [MOCLOBEMIDE]
[1]
  CC50: > 10000 nM
[2]
  EC50: > 740 nM
[3]
  EC50: > 1250 nM

## CCOc1ccc2nc3ccc([N+](=O)[O-])cc3c(NC)c2c1
[1]
  CC50: > 10000 nM
[2]
  EC50: 222 nM
[3]
  EC50: 534 nM

## COc1ccc(NC(=O)C2c3ccccc3C(=O)N(CC(C)C)C2c2cccs2)cc1Cl (centres undefined)
[1]
  CC50: > 100000 nM
[2]
  EC50: 91.4 nM
[3]
  EC50: 55.6 nM

## Cc1ncc(CCCCN(C)C)c2c1[nH]c1ccccc12
[1]
  CC50: 18800 nM
[2]
  EC50: 472 nM
[3]
  EC50: 325 nM

## c1cc(C2=NCCN2)ccc1OCCCOc1ccc(C2=NCCN2)cc1
[1]
  CC50: > 10000 nM
[2]
  EC50: 5.58 nM
[3]
  EC50: 51.8 nM

## N#Cc1c2c(c(N3CCN(CCO)CC3)n3c1nc1ccccc13)CCC2
[1]
  CC50: > 100000 nM
[2]
  EC50: 207 nM
[3]
  EC50: 177 nM

## CC[n+]1c(/C=C/c2ccc(OC)cc2)ccc2ccccc21
[1]
  CC50: > 10000 nM
[2]
  EC50: 110 nM
[3]
  EC50: 85.8 nM

## CCNC(=O)N(CCCCOc1ccc(C(C)(C)CC)cc1C(C)(C)CC)Cc1ccc(OC)c(OCc2ccccc2)c1
[1]
  CC50: > 10000 nM
[2]
  EC50: 595 nM
[3]
  EC50: 61 nM

## Cc1ccc(C(=O)Nc2ccc(-c3nc4cc5ccccc5cc4[nH]3)cc2)cc1[N+](=O)[O-]
[1]
  CC50: > 100000 nM
[2]
  EC50: 4300 nM
[3]
  EC50: 3980 nM

## COc1cccc2c1C(=O)c1c(O)c3c(c(O)c1C2=O)CC(O)(C(=O)CO)CC3OC1CC(N)C(O)C(C)O1 (centres undefined)
[1]
  CC50: 5250 nM
[2]
  EC50: 169 nM
[3]
  EC50: 180 nM

## O=C(NC1CC1)C1CCN(S(=O)(=O)c2ccc(Cl)cc2)CC1
[1]
  CC50: > 100000 nM
[2]
  EC50: 5000 nM
[3]
  EC50: 4720 nM

## CCN1CCN(c2c(Cl)cccc2NC(=O)C(Cl)(Cl)Cl)CC1
[1]
  CC50: > 100000 nM
[2]
  EC50: 1670 nM
[3]
  EC50: 1180 nM

## COc1ccc(S(=O)(=O)N2CCCCC2C(=O)NC(CN2CCCC2)c2ccccc2)cc1 (centres undefined)
[1]
  CC50: > 10000 nM
[2]
  EC50: 168 nM
[3]
  EC50: 122 nM

## CCn1cc(C(=O)NCCC2=CCCCC2)c(=O)c2cc(S(=O)(=O)N(C)C)ccc21
[1]
  CC50: > 10000 nM
[2]
  EC50: > 1250 nM
[3]
  EC50: > 449 nM

## CC(=O)C1=C(O)C(=O)N(c2ccc(Br)cn2)C1c1ccccc1[N+](=O)[O-] (centres undefined)
[1]
  CC50: > 100000 nM
[2]
  EC50: > 9610 nM
[3]
  EC50: > 12500 nM

## CC=C[C@H]1O[C@@](O)([C@H](C)C(O)C(C)[C@@H]2OC(=O)C(OC)=CC(C)=C[C@H](C)[C@H](O)[C@H](CC)[C@H](O)C(C)CC(C)=CC=C[C@H]2OC)C[C@@H](O[C@@H]2C[C@H](O)[C@@H](OC(N)=O)[C@H](C)O2)[C@@H]1C (some centres undefined)
[1]
  CC50: > 10000 nM
[2]
  EC50: > 503 nM
[3]
  EC50: < 18.6 nM

## O=C1CC(C(=O)N2CCC(c3nc(-c4cccnc4)ncc3-c3ccccc3)CC2)c2ccccc21 (centres undefined)
[1]
  CC50: > 100000 nM
[2]
  EC50: 459 nM
[3]
  EC50: 150 nM

## CCCCCCn1c(=O)c(C(=O)NCC[N+](CC)(CC)CC)c(O)c2ccccc21
[1]
  CC50: > 100000 nM
[2]
  EC50: 506 nM
[3]
  EC50: 236 nM

## CC(C)CNC(=O)c1cnc(NCCCn2ccnc2)nc1NCC1CCCCC1
[1]
  CC50: > 10000 nM
[2]
  EC50: 278 nM
[3]
  EC50: 379 nM

## CC(C)COc1ccc(C(=O)N/C(=C/c2ccccc2)C(N)=O)cc1
[1]
  CC50: > 10000 nM
[2]
  EC50: > 1250 nM
[3]
  EC50: > 617 nM

## COc1cc(NC(C)CCCN(Cc2ccccc2OC)C(=O)COCc2ccccc2)c2ncccc2c1 (centres undefined)
[1]
  CC50: > 10000 nM
[2]
  EC50: 1120 nM
[3]
  EC50: 689 nM

## CCC(C)OC(=O)C1=C(C)NC2=C(C(=O)CC(c3ccc(Cl)cc3)C2)C1c1ccccc1F (centres undefined)
[1]
  CC50: > 100000 nM
[2]
  EC50: 205 nM
[3]
  EC50: 58.3 nM

## N=c1c2c(n(Cc3cccc(Cl)c3)c3c1CCC3)CCCC2
[1]
  CC50: > 10000 nM
[2]
  EC50: 992 nM
[3]
  EC50: 378 nM

## COc1cccc(NC(=O)c2ccc(NCCCN3CCC(C)CC3)c([N+](=O)[O-])c2)c1
[1]
  CC50: 18700 nM
[2]
  EC50: 296 nM
[3]
  EC50: 521 nM

## Oc1cccc2ccc(Nc3ccccn3)nc12
[1]
  CC50: 8870 nM
[2]
  EC50: 679 nM
[3]
  EC50: 302 nM

## CCn1c(SCC(=O)Nc2cccc(C)c2)nnc1-c1ccccc1
[1]
  CC50: > 10000 nM
[2]
  EC50: > 1250 nM
[3]
  EC50: 26.7 nM

## Cc1ccc2c(c1)C1CN(C)CCC1N2C(=O)c1cc2ccccc2o1 (centres undefined)
[1]
  CC50: > 10000 nM
[2]
  EC50: > 1040 nM
[3]
  EC50: > 922 nM

## COc1cccc2c1C(=O)C1C(O)=C3C(=C(O)C1C2=O)CC(O)(C(C)=NN=C1CC(C)(C)N(O)C(C)(C)C1)CC3OC1CC(C)(N)C(O)CO1 (centres undefined)
[1]
  CC50: > 10000 nM
[2]
  EC50: 416 nM
[3]
  EC50: 337 nM

## Cc1ccc(Cn2c(SCc3ccc(C(=O)NCCc4ccccc4)cc3)nc3ccncc32)cc1
[1]
  CC50: > 100000 nM
[2]
  EC50: 700 nM
[3]
  EC50: 174 nM

## Cc1ccc(NC(=O)C2CC3c4ccccc4C2c2ccccc23)cc1 (centres undefined)
[1]
  CC50: > 100000 nM
[2]
  EC50: > 12500 nM
[3]
  EC50: 2550 nM

## CC(C)CNc1nc(NCCC2CCCN2C)ncc1C(=O)NCc1ccccc1 (centres undefined)
[1]
  CC50: > 10000 nM
[2]
  EC50: 775 nM
[3]
  EC50: > 1250 nM

## Cc1nc2c(=O)n(C)c(=O)nc-2n(C)n1
[1]
  CC50: > 10000 nM
[2]
  EC50: 593 nM
[3]
  EC50: 398 nM

## Nc1nc(N)c2nc(CCc3ccc(C(=O)N[C@H](CCC(=O)O)C(=O)O)cc3)cnc2n1
[1]
  CC50: 8.1 nM
[2]
  EC50: 29.5 nM
[3]
  EC50: 1.78 nM

## Cc1cccc(-n2c(-c3ccccc3)nc3ccc(-c4ccc5nc(-c6ccccc6)n(-c6cccc(C)c6)c(=O)c5c4)cc3c2=O)c1
[1]
  CC50: > 10000 nM
[2]
  EC50: > 1200 nM
[3]
  EC50: > 939 nM

## CC1CCc2c(sc(NC(=O)c3ccccc3F)c2C(=O)NCc2ccccc2)C1 (centres undefined)
[1]
  CC50: > 10000 nM
[2]
  EC50: > 699 nM
[3]
  EC50: > 1250 nM

## Oc1ccc(-c2cncc(NCc3ccc4c(c3)OCO4)c2)cc1
[1]
  CC50: > 10000 nM
[2]
  EC50: 1170 nM
[3]
  EC50: 960 nM

## CC1CCCCN1CCCNc1ncc(C(=O)NCCCN2CCCC2=O)c(NCC2CCCCC2)n1 (centres undefined)
[1]
  CC50: > 10000 nM
[2]
  EC50: 850 nM
[3]
  EC50: > 1250 nM

## CC(C)CN1C(=O)c2ccccc2C(C(=O)Nc2ccc(F)cc2F)C1c1cccs1 (centres undefined)
[1]
  CC50: > 100000 nM
[2]
  EC50: 219 nM
[3]
  EC50: 129 nM

## COc1cccc(N2CCN(CCNCCc3ccccc3)[C@@H](Cc3ccc(O)cc3)C2)c1
[1]
  CC50: > 10000 nM
[2]
  EC50: 564 nM
[3]
  EC50: 397 nM

## CCCCCCCCC(=O)N1CCN(C(CC)c2nc3ccccc3c(=O)n2C)CC1 (centres undefined)
[1]
  CC50: > 10000 nM
[2]
  EC50: 492 nM
[3]
  EC50: 500 nM

## CC(C)CNC(=O)c1ccc(OC2CCN(CC3CCCCC3)CC2)c(Cl)c1
[1]
  CC50: 14800 nM
[2]
  EC50: 326 nM
[3]
  EC50: 130 nM

## CN1CCC(N2CCC(Oc3cccc(C(=O)NCCC4=CCCCC4)c3)CC2)CC1
[1]
  CC50: 20700 nM
[2]
  EC50: 780 nM
[3]
  EC50: 944 nM

## O=[N+]([O-])c1ccc(N2CCCN(C(=S)Nc3ccc(F)cc3Br)CC2)nc1
[1]
  CC50: > 100000 nM
[2]
  EC50: 110 nM
[3]
  EC50: 90.3 nM

## O=C(c1ccccc1)C1NC1c1ccc(Br)cc1 (centres undefined)
[1]
  CC50: > 100000 nM
[2]
  EC50: 989 nM
[3]
  EC50: 1120 nM

## c1ccc([B-](c2ccccc2)(c2ccccc2)c2ccccc2)cc1
[1]
  CC50: > 100000 nM
[2]
  EC50: 124 nM
[3]
  EC50: 44.8 nM

## CCC(C)NC(=O)c1c[nH]c2ccc(S(=O)(=O)N(C)c3cc(C)ccc3C)cc2c1=O (centres undefined)
[1]
  CC50: 59300 nM
[2]
  EC50: 5220 nM
[3]
  EC50: 2170 nM

## NC(=O)c1ccc2[nH]c3c(c2c1)CCCC3
[1]
  CC50: > 100000 nM
[2]
  EC50: > 12500 nM
[3]
  EC50: > 7160 nM

## CC(C)(C)c1ccc(C(=O)C[n+]2cc(-c3ccccc3)n3c2CCC3)cc1
[1]
  CC50: 43000 nM
[2]
  EC50: 1140 nM
[3]
  EC50: 470 nM
